Reference: US6737247B2, “Imaging of enzymatic activity” (The General Hospital Corporation, priority 2000, dated 2004)

Legend:
peroxidase [1] = assay: H1 NMR relaxometry / relaxivity enhancement after peroxidase treatment; type: biochemical; details: equimolar amount added to the peroxidase reaction
peroxidase [2] = assay: Kinetics of peroxidase-mediated oxidation in excess hydrogen peroxide, spectrophotometry at 400 nm; type: biochemical; details: absorbance at 400 nm
Protocol: Substrates I and II at concentrations of 10-50 μM were treated by peroxidase (0.1-100 nM) and an excess of hydrogen peroxide (3.5 mM) in 10 mM phosphate-buffered saline (PBS) or 0.05 M sodium phosphate pH 6.8. In some experiments, a peroxide-generating system (5 mM glucose, glucose oxidase and lactoperoxidase) was used. In inhibition studies, 2 mM Gd-free substrate, tyramine, dopamine, or methyldopamine were added as competitive inhibitors. The reaction was monitored by spectrophotometry at 400 nm and by NMR spectrometry (Minispec 120 Bruker). Magnetic resonance imaging was performed using a 1.5 T Signa GE system and surface or knee coils. Inversion-recovery pulse sequences (TE 11 ms/TR 1000 ms/TI 50-600 ms) were used for T1 measurements. Spin-echo sequence (TE 13 ms/TR 400 ms/2 NEX, Matrix 256×160) was optimal for magnetic resonance imaging of signal amplification. Magnetic resonance signal intensity was measured using region-of-interest approach and 16-bit TIFF images. […]
Kinetics of oxidation of tyraminyl-DOTA(Gd), I, or hydroxytyraminyl-DOTA(Gd), II, in the presence of the excess of hydrogen peroxide was studied using spectrophotometry. The increase in absorbance at 400 nm in the case of both gadolinium-labeled substrates was rapid, indicating efficient oxidation of both substrates, and gave similar pseudo-first order kinetic constants: k1app=0.0125 s^−1 (I) and 0.013 s^−1 (II).

peroxidase [3] = assay: H1 NMR relaxometry / relaxivity enhancement after peroxidase treatment; type: biochemical; details: for r1, peroxidase: after peroxidase; for r1, control: no peroxidase
Protocol: Substrates I and II at concentrations of 10-50 μM were treated by peroxidase (0.1-100 nM) and an excess of hydrogen peroxide (3.5 mM) in 10 mM phosphate-buffered saline (PBS) or 0.05 M sodium phosphate pH 6.8. In some experiments, a peroxide-generating system (5 mM glucose, glucose oxidase and lactoperoxidase) was used. In inhibition studies, 2 mM Gd-free substrate, tyramine, dopamine, or methyldopamine were added as competitive inhibitors. The reaction was monitored by spectrophotometry at 400 nm and by NMR spectrometry (Minispec 120 Bruker). Magnetic resonance imaging was performed using a 1.5 T Signa GE system and surface or knee coils. Inversion-recovery pulse sequences (TE 11 ms/TR 1000 ms/TI 50-600 ms) were used for T1 measurements. […] Magnetic resonance signal intensity was measured using region-of-interest approach and 16-bit TIFF images. Mean pixel values were compared using a Student t-test.

[4] = Chelex-100 resin treatment to test dissociation of gadolinium from the DOTA(Gd) complex; type: physicochemical; details: compared to control with no peroxidase added
Source text: By plotting relaxation data against the concentration of gadolinium, a raise of 1/T1 and I/T2 of 2 fold (at 0.47 T) and 2.7 fold (1.5 T) in the case of substrate I, and 3.5 (at 0.47 T) in the case of substrate II has been measured (Table 1). […] To find out whether the increase in relaxivity is a result of dissociation of gadolinium cation from a DOTA(Gd) complex, we treated Tyr-DOTA(Gd) or Dopamine-DOTA(Gd) with Chelex-100 resin and compared it to the control with no peroxidase added. No difference in T1 relaxation time of substrate solutions before and after the treatment was observed.

[5] = test system: digoxigenin-labeled Fab2' fragment of monoclonal antibody; assay: MRAMP ELISA-like assay with adsorbed DIG-labeled Fab2' fragment and anti-digoxigenin-peroxidase conjugate; details: 0.4 mM substrate, 3.5 mM hydrogen peroxide, 96-well plate
Protocol: Fab2′ fragment of H18/7 monoclonal anti-human E selectin antibody was prepared using pepsin digestion, and then purified. Labeling of Fab2′-fragment with digoxigenin (DIG) hydroxysuccinimide ester (HSE) (Roche Molecular Diagnostics) was carried out according to the vendor's instructions. One ng to 1000 ng of DIG-labeled antibody was serially diluted with 0.01 M sodium carbonate (pH 9) in a 96-well plate (Nunc) and adsorbed at 37° C. overnight. Wells were washed with PBS containing 0.1% Tween 20 (PBST) blocked with BSA solution, and anti-DIG antibody-peroxidase conjugate (Roche, diluted 1:1000) was incubated in wells in PBS-B for 1 hour. Washed wells were filled with 200 μl of 0.4 mM substrate I or II and hydrogen peroxide (3.5 mM) and incubated for 30 min before imaging. Cells (2 million/sample) were treated sequentially with IL-1β, anti-E selectin DIG-labeled Fab2′-fragment, and anti-DIG antibody-peroxidase. Cell suspensions were prepared in PBS and substrates were used as above. Cells were pelleted in Eppendorf tubes (0.5 ml), and then imaged as described above. […] Magnetic resonance signal intensity was quantified as described above and compared to that of aqueous Gd solutions.
In the next series of experiments, we determined whether MRAMP could be utilized to detect a model ligand in an ELISA-like assay. […]

Molecule	influence of added equimolar competitor on gadolinium relaxivity (peroxidase [1])	pseudo-first order kinetic constant k1app (peroxidase [2]) [s⁻¹]	raise of 1/T1 and 1/T2 after addition of the enzyme (peroxidase [3]; 0.47 T) [fold]	r1, peroxidase (peroxidase [3]; 0.47 T (20 MHz)) [mM⁻¹ s⁻¹]	r1, control (peroxidase [3]; 0.47 T (20 MHz)) [mM⁻¹ s⁻¹]	r1, peroxidase (peroxidase [3]; 1.5 T (63 MHz)) [mM⁻¹ s⁻¹]	r1, control (peroxidase [3]; 1.5 T (63 MHz)) [mM⁻¹ s⁻¹]	difference in T1 relaxation time of substrate solutions before and after Chelex-100 treatment [4]	other results
NCCc1ccc(O)c(O)c1 [dopamine]	did not influence gadolinium relaxivity	–	–	–	–	–	–	–	–
NCCc1ccc(O)cc1 [tyramine]	did not influence gadolinium relaxivity	–	–	–	–	–	–	–	–
N[C@@H](Cc1ccc(O)cc1)C(=O)O [tyrosine]	did not influence gadolinium relaxivity	–	–	–	–	–	–	–	–
hydroxytyraminyl-DOTA(Gd) [Substrate II]	–	0.013	3.5	11.50	3.75	14.1	5.2	No difference	antibody fragment detected at threshold (sensitivity of MRAMP assay) [5]: 1 ng
methyl-dopamine	did not influence gadolinium relaxivity	–	–	–	–	–	–	–	–
tyramine-[1,4,7,10-tetraazacyclododecane-N,N′,N″,N′″-tetraacetic acid, gadolinium salt] [Substrate I]	–	0.0125	2	7.10	3.30	10.1	4.5	No difference	raise of 1/T1 and 1/T2 after addition of the enzyme (peroxidase [3]; 1.5 T): 2.7 fold
